Experimental data as given in ChEMBL document CHEMBL3046894, “Synthesis and Herbicidal Activity of Pyrimidinyl Salicylic and Thiosalicylic Acids” (J Pestic Sci, 1996).
Activity calls are given as the source filed them. No cut-off for these calls is given here.

Experiments:
[1] = system: Zea mays; experiment: (§1) Pre-emergence phytotoxicity against Zea mays (maize) assessed as mortality at 1.6 g a.i/10 a; assay type: organism-based; settings: in vivo, other
[2] = system: Glycine max; experiment: Post-emergence phytotoxicity against Glycine max (soybean) assessed as mortality at 6.3 g a.i/10 a applied 11 days after germination as foliar spray; assay type: organism-based; settings: in vivo, other, 264 h
[3] = system: Ipomoea lacunosa; experiment: Pre-emergence herbicidal activity against Ipomoea lacunosa assessed as mortality at 6.3 g a.i/10 a; assay type: functional
[4] = (§2) Pre-emergence phytotoxicity against Gossypium hirsutum (cotton) assessed as mortality at 6.3 g a.i/10 a; assay type: organism-based; settings: in vivo, 6.3 g a.i/10 a, read-out: Activity
[5] = system: Persicaria nodosa; experiment: Pre-emergence herbicidal activity against Persicaria nodosa assessed as mortality per 10 acre; assay type: functional
[6] = system: Amaranthus retroflexus; experiment: Post-emergence herbicidal activity against Amaranthus retroflexus assessed as mortality per 10 acre; assay type: functional
[7] = system: Ipomoea lacunosa; experiment: Post-emergence herbicidal activity against Ipomoea lacunosa assessed as mortality at 1.6 g a.i/10 a applied 11 days after germination as foliar spray; assay type: functional; settings: 264 h
[8] = system: Xanthium strumarium; experiment: Pre-emergence herbicidal activity against Xanthium strumarium (cocklebur) assessed as mortality at 6.3 g a.i/10 a; assay type: functional
[9] = system: Xanthium strumarium; experiment: Pre-emergence herbicidal activity against Xanthium strumarium (cocklebur) assessed as mortality at 1.6 g a.i/10 a; assay type: functional
[10] = system: Gossypium hirsutum; experiment: Post-emergence phytotoxicity against Gossypium hirsutum (cotton) assessed as mortality at 6.3 g a.i/10 a applied 11 days after germination as foliar spray; assay type: organism-based; settings: in vivo, other, 264 h
[11] = system: Zea mays; experiment: (§3) Post-emergence phytotoxicity against Zea mays (maize) assessed as mortality at 1.6 g a.i/10 a applied 11 days after germination as foliar spray; assay type: organism-based; settings: in vivo, other, 264 h
[12] = system: Gossypium hirsutum; experiment: Pre-emergence phytotoxicity against Gossypium hirsutum (cotton) assessed as mortality per 10 acre; assay type: organism-based; settings: in vivo
[13] = (§4) Pre-emergence phytotoxicity against Glycine max (soybean) assessed as mortality at 1.6 g a.i/10 a; assay type: organism-based; settings: in vivo, 1.6 g a.i/10 a, read-out: Activity
[14] = system: Ipomoea lacunosa; experiment: Post-emergence herbicidal activity against Ipomoea lacunosa assessed as mortality at 6.3 g a.i/10 a applied 11 days after germination as foliar spray; assay type: functional; settings: 264 h
[15] = system: Glycine max; experiment: (§5) Post-emergence phytotoxicity against Glycine max (soybean) assessed as mortality at 1.6 g a.i/10 a applied 11 days after germination as foliar spray; assay type: organism-based; settings: in vivo, other, 264 h
[16] = system: Zea mays; experiment: Pre-emergence phytotoxicity against Zea mays (maize) assessed as mortality at 6.3 g a.i/10 a; assay type: organism-based; settings: in vivo, other
[17] = system: Gossypium hirsutum; experiment: Post-emergence phytotoxicity against Gossypium hirsutum (cotton) assessed as mortality per 10 acre; assay type: organism-based; settings: in vivo
[18] = system: Gossypium hirsutum; experiment: Post-emergence phytotoxicity against Gossypium hirsutum (cotton) assessed as mortality at 1.6 g a.i/10 a applied 11 days after germination as foliar spray; assay type: organism-based; settings: in vivo, other, 264 h
[19] = system: Xanthium strumarium; experiment: Post-emergence herbicidal activity against Xanthium strumarium (cocklebur) assessed as mortality per 10 acre; assay type: functional
[20] = system: Glycine max; experiment: (§6) Pre-emergence phytotoxicity against Glycine max (soybean) assessed as mortality at 6.3 g a.i/10 a; assay type: organism-based; settings: in vivo, other
[21] = system: Ipomoea lacunosa; experiment: Pre-emergence herbicidal activity against Ipomoea lacunosa assessed as mortality at 1.6 g a.i/10 a; assay type: functional
[22] = system: Echinochloa crus-galli; experiment: Pre-emergence herbicidal activity against Echinochloa crus-galli (barnyard grass) assessed as mortality per 10 acre; assay type: functional
[23] = system: Persicaria nodosa; experiment: Post-emergence herbicidal activity against Persicaria nodosa assessed as mortality per 10 acre; assay type: functional
[24] = system: Amaranthus retroflexus; experiment: Pre-emergence herbicidal activity against Amaranthus retroflexus assessed as mortality per 10 acre; assay type: functional
[25] = system: Zea mays; experiment: Post-emergence phytotoxicity against Zea mays (maize) assessed as mortality at 6.3 g a.i/10 a applied 11 days after germination as foliar spray; assay type: organism-based; settings: in vivo, other, 264 h
[26] = system: Echinochloa crus-galli; experiment: Post-emergence herbicidal activity against Echinochloa crus-galli (barnyard grass) assessed as mortality at 1.6 g a.i/10 a applied 11 days after germination as foliar spray; assay type: functional; settings: 264 h
[27] = system: Ipomoea lacunosa; experiment: Pre-emergence herbicidal activity against Ipomoea lacunosa assessed as mortality per 10 acre; assay type: functional
[28] = system: Echinochloa crus-galli; experiment: Post-emergence herbicidal activity against Echinochloa crus-galli (barnyard grass) assessed as mortality per 10 acre; assay type: functional
[29] = system: Xanthium strumarium; experiment: Pre-emergence herbicidal activity against Xanthium strumarium (cocklebur) assessed as mortality per 10 acre; assay type: functional
[30] = system: Gossypium hirsutum; experiment: Pre-emergence phytotoxicity against Gossypium hirsutum (cotton) assessed as mortality at 1.6 g a.i/10 a; assay type: organism-based; settings: in vivo, other
[31] = system: Ipomoea lacunosa; experiment: Post-emergence herbicidal activity against Ipomoea lacunosa assessed as mortality per 10 acre; assay type: functional
[32] = as §1; assay type: organism-based; settings: in vivo, 1.6 g a.i/10 a, read-out: mortality
[33] = system: Gossypium hirsutum; experiment: as §2; assay type: organism-based; settings: in vivo, other
[34] = system: Chenopodium album; experiment: Pre-emergence herbicidal activity against Chenopodium album assessed as growth inhibition at 25 g a.i/10 a; assay type: functional, organism-based
[35] = system: Abutilon theophrasti; experiment: Pre-emergence herbicidal activity against Abutilon theophrasti (velvetleaf) assessed as mortality at 6.3 g a.i/10 a; assay type: functional; settings: Abutilon theophrasti, pre-emergence
[36] = system: Echinochloa crus-galli; experiment: Post-emergence herbicidal activity against Echinochloa crus-galli (barnyard grass) assessed as growth inhibition at 25 g a.i/10 a applied 11 days after germination as foliar spray; assay type: functional, organism-based
[37] = system: Cyperus iria; experiment: Pre-emergence herbicidal activity against Cyperus iria assessed as growth inhibition at 25 g a.i/10 a; assay type: functional, organism-based
[38] = system: Digitaria sanguinalis; experiment: Post-emergence herbicidal activity against Digitaria sanguinalis (hairy crabgrass) assessed as growth inhibition at 25 g a.i/10 a applied 11 days after germination as foliar spray; assay type: functional, organism-based
[39] = as §3; assay type: organism-based; settings: in vivo, 1.6 g a.i/10 a
[40] = system: Chenopodium album; experiment: Post-emergence herbicidal activity against Chenopodium album assessed as growth inhibition at 25 g a.i/10 a applied 11 days after germination as foliar spray; assay type: functional, organism-based
[41] = system: Glycine max; experiment: as §4; assay type: organism-based; settings: in vivo, other
[42] = system: Abutilon theophrasti; experiment: Post-emergence herbicidal activity against Abutilon theophrasti (velvetleaf) assessed as mortality at 6.3 g a.i/10 a applied 11 days after germination as foliar spray; assay type: functional; settings: 264 h
[43] = system: Abutilon theophrasti; experiment: Post-emergence herbicidal activity against Abutilon theophrasti (velvetleaf) assessed as mortality at 1.6 g a.i/10 a applied 11 days after germination as foliar spray; assay type: functional; settings: 264 h
[44] = as §5; assay type: organism-based; settings: in vivo, 1.6 g a.i/10 a
[45] = system: Echinochloa crus-galli; experiment: Pre-emergence herbicidal activity against Echinochloa crus-galli (barnyard grass) assessed as mortality at 6.3 g a.i/10 a; assay type: functional; settings: Echinochloa crus-galli, pre-emergence
[46] = system: Echinochloa crus-galli; experiment: Pre-emergence herbicidal activity against Echinochloa crus-galli (barnyard grass) assessed as growth inhibition at 25 g a.i/10 a; assay type: functional, organism-based
[47] = system: Echinochloa crus-galli; experiment: Post-emergence herbicidal activity against Echinochloa crus-galli (barnyard grass) assessed as mortality at 6.3 g a.i/10 a applied 11 days after germination as foliar spray; assay type: functional; settings: 264 h
[48] = system: Amaranthus retroflexus; experiment: Pre-emergence herbicidal activity against Amaranthus retroflexus assessed as growth inhibition at 25 g a.i/10 a; assay type: functional, organism-based
[49] = as §6; assay type: organism-based; settings: in vivo, 6.3 g a.i/10 a, read-out: mortality
[50] = system: Amaranthus retroflexus; experiment: Post-emergence herbicidal activity against Amaranthus retroflexus assessed as growth inhibition at 25 g a.i/10 a applied 11 days after germination as foliar spray; assay type: functional, organism-based
[51] = system: Persicaria nodosa; experiment: Pre-emergence herbicidal activity against Persicaria nodosa assessed as growth inhibition at 25 g a.i/10 a; assay type: functional, organism-based
[52] = system: Cyperus iria; experiment: Post-emergence herbicidal activity against Cyperus iria assessed as growth inhibition at 25 g a.i/10 a applied 11 days after germination as foliar spray; assay type: functional, organism-based
[53] = system: Persicaria nodosa; experiment: Post-emergence herbicidal activity against Persicaria nodosa assessed as growth inhibition at 25 g a.i/10 a applied 11 days after germination as foliar spray; assay type: functional, organism-based
[54] = system: Digitaria sanguinalis; experiment: Pre-emergence herbicidal activity against Digitaria sanguinalis (hairy crabgrass) assessed as growth inhibition at 25 g a.i/10 a; assay type: functional, organism-based

COc1cc(OC)nc(Sc2cccc(C)c2C(=O)O)n1
Activity [1]: Toxic | Activity [2]: Toxic | Activity [3]: <50% | mortality [4]: < 50% | ED90 [5]: Active | ED90 [6]: Active | mortality at 16 g/ha [7]: < 5% | Activity [8]: <50% | Activity [9]: <50% | Activity [10]: Non-toxic | Activity [11]: Toxic | ED20 [12]: 100 gAi | mortality [13]: < 50% | mortality at 63 g/ha [14]: < 5% | Activity [15]: Toxic | Activity [16]: Toxic | ED20 [17]: 100 gAi | Activity [18]: Non-toxic | ED90 [19]: 25 gAi | Activity [20]: Non-toxic | Activity [21]: <50% | ED90 [22]: 100 gAi | ED90 [23]: Active | ED90 [24]: Active | Activity [25]: Toxic | mortality at 16 g/ha [26]: < 5% | ED90 [27]: 50 gAi | ED90 [28]: 100 gAi | ED90 [29]: 25 gAi | Activity [30]: < 50% | ED90 [31]: 50 gAi

COc1cc(OC)nc(Oc2cccc(Cl)c2C(=O)O)n1
mortality [32]: > 90% | Activity [33]: Non-toxic | ED90 [5]: 0.4 gAi | growth inhibition (GI) [34]: Active | mortality at 63 g/ha [35]: > 90% | growth inhibition (GI) [36]: Active | ED90 [6]: 0.2 gAi | growth inhibition (GI) [37]: Active | growth inhibition (GI) [38]: Active | Activity [10]: Toxic | mortality at 264 h [39]: > 90% | growth inhibition (GI) [40]: Active | ED20 [12]: Toxic | Activity [41]: Toxic | mortality at 63 g/ha [42]: > 90% | mortality at 16 g/ha [43]: > 90% | mortality at 264 h [44]: > 90% | mortality at 63 g/ha [45]: > 90% | growth inhibition (GI) [46]: Active | ED20 [17]: 0.2 gAi | Activity [18]: Toxic | mortality at 63 g/ha [47]: > 90% | growth inhibition (GI) [48]: Active | ED90 [19]: 1.5 gAi | mortality [49]: > 90% | ED90 [22]: inactive | ED90 [23]: 0.2 gAi | growth inhibition (GI) [50]: Active | ED90 [24]: 0.4 gAi | mortality at 16 g/ha [26]: > 90% | growth inhibition (GI) [51]: Active | ED90 [27]: 25 gAi | ED90 [28]: 1.5 gAi | ED90 [29]: 25 gAi | growth inhibition (GI) [52]: Active | Activity [30]: Non-toxic | ED90 [31]: 0.8 gAi | growth inhibition (GI) [53]: Active | growth inhibition (GI) [54]: Active
